Measurements: US6504005B1, “Long-acting drugs and pharmaceutical compositions comprising them” (Yeda Research and Development Co. Ltd., priority 1996, dated 2003)
Like-named read-outs stand apart in the source and are kept apart here.

Legend:
[1] = system: Staphylococcus aureus; details: for Antimicrobial potency (%): relative to cephalexin control; for IC50: read-out: Concentration inhibiting 50% of bacterial growth (μM) (IC50)
Description: At the indicated time points, aliquots were withdrawn and analyzed for their potency to arrest growth of Staphylococcus aureus. Bacterial growth was then evaluated by increased turbidity measured spectroscopically at 700 nm.

[2] = system: penicillinase
[3] = system: experimental animal models; details: cited from earlier work
[4] = system: chymotrypsin and trypsin; details: pH 7.4
Description: (§1) Chymotrypsin and trypsin (0.5% w/w, of each) was then added. At the indicated time points aliquots were withdrawn and subjected to analytical HPLC procedure.

[5] = Solubility and appearance in aqueous buffer (pH 7.4)
[6] = molecular target: insulin receptor tyrosine kinase (Rattus norvegicus, UniProt P15127); assay: Insulin receptor tyrosine kinase activity, [poly(Glu4Tyr)] phosphorylating assay (cell-free); details: for Biological potency (%): of native insulin potency, before incubation, [poly(Glu4Tyr)] phosphorylating assay
Description: Briefly, the liver was homogenized in the presence of proteinase inhibitors, solubilized with 1% Triton X-100, and centrifuged. The supernatant was allowed to pass through a wheat-germ agglutinin (WGA)-agarose column (Sigma). Adsorbed insulin receptor portion was eluted with 0.3M N-acetyl-D-glucose amine in 50 mM HEPES buffer, pH 7.4, containing 0.1% Triton X-100, 10% glycerol, and 0.15M NaCl.
(iv) Receptor Tyrosine Kinase Activity Measurement
In this assay insulin activates its own receptor to phosphorylate a random copolymer containing L-glutamic acid and L-tyrosine at 4:1 molar ratio [Poly(Glu4Tyr)]SEQ ID NO:1. The standard enzyme assay mixture (final volume 60 μl in 50 mM Hepes, pH 7.4-0.1% Triton X-100) contained WGA purified insulin receptor (5μg protein), 20 mM MgCl2, 2 mM MnCl2, 100 μM ATP and varying concentrations (from 1 ng/ml to 10 mg/ml) of insulin or insulin derivative. Following a 30 min preincubation at 22° C., the reaction was initiated by adding Poly(Glu4Tyr) SEQ ID NO:1 (final concentration 0.7 mg/ml), it proceeded for 20 min at 22° C. and was terminated by adding EDTA (20 mM). Phosphotyrosine content in PolyGlu4Tyr was quantitated by a radio-immunoassay procedure using specific monoclonal antibodies to phosphotyrosine (final dilution 1: 100,000) and ^125I-BSA-phosphotyrosine conjugate.

[7] = type: physicochemical; details: pH 7.4, 37° C.
Description: (i.e. at physiological pH and body temperature). At the indicated time points aliquots were withdrawn for determining the biological potency relative to native insulin. Biological activities were evaluated by Insulin receptor tyrosine kinase activation (a cell free assay as described in Biological Procedures above, section (iv)) and by stimulation of lipogenesis in intact rat adipocytes as described in Biological Procedures, […].

[8] = system: STZ-diabetic rats; assay: Single subcutaneous administration to STZ-diabetic rats (blood glucose, daily weight gain); details: single s.c. 1 mg; for Daily weight gain: followed seven days
Description: Diabetes was induced by a single intravenous injection of a freshly prepared solution of streptozotocin (55 mg/kg body weight) in 0.1M citrate buffer (pH 4.5) according to Meyerovitch et al., 1987.
Blood glucose levels and daily weight gains were followed over a period of seven days.
Group C (n=5) received the vehicle only (2.0 ml of 20% DMSO). Blood glucose levels were determined daily.

[9] = system: chymotrypsin and trypsin; assay: Proteolysis by a mixture of chymotrypsin and trypsin (analytical HPLC); details: pH 7.4, 37° C., chymotrypsin and trypsin 0.5% w/w each
Description: as §1

[10] = system: normal rats; assay: Single intraperitoneal administration to normal rats, blood glucose levels; type: in vivo; details: single i.p. injection, 3 mg/rat
Description: This assay reflects the post-subcutaneous long-acting feature of insulin (or insulin derivatives) within the circulation. Normal rats received a single intraperitoneal injection of native insulin, NPH-insulin and (Fmoc)2-insulin (3 mg/rat), and their blood glucose levels were monitored over a period of three days.
Blood glucose levels were followed for two days.

[11] = background statement; cited from earlier work

Chain of insulin receptor tyrosine kinase (P15127 27-759 limits assumed): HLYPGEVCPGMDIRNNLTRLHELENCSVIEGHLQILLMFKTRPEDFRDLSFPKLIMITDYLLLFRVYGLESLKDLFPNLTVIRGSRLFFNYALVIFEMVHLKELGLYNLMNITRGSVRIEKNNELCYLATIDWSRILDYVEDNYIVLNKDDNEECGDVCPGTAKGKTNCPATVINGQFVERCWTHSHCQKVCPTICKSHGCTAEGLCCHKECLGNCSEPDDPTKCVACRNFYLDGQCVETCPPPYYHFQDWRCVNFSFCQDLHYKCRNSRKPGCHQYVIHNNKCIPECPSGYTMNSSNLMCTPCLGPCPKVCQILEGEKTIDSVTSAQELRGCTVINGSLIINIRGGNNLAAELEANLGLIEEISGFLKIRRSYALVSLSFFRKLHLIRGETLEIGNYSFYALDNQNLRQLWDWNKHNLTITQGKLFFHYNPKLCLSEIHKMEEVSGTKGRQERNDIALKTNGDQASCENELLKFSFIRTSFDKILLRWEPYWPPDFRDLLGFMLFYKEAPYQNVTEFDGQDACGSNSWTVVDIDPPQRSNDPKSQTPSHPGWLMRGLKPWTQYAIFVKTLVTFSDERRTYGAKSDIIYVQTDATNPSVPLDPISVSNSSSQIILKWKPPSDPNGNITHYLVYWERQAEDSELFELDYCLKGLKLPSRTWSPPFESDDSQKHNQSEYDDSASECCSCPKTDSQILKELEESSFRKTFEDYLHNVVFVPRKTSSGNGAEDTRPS
Chain of insulin receptor tyrosine kinase (P15127 764-1383 partner limits assumed): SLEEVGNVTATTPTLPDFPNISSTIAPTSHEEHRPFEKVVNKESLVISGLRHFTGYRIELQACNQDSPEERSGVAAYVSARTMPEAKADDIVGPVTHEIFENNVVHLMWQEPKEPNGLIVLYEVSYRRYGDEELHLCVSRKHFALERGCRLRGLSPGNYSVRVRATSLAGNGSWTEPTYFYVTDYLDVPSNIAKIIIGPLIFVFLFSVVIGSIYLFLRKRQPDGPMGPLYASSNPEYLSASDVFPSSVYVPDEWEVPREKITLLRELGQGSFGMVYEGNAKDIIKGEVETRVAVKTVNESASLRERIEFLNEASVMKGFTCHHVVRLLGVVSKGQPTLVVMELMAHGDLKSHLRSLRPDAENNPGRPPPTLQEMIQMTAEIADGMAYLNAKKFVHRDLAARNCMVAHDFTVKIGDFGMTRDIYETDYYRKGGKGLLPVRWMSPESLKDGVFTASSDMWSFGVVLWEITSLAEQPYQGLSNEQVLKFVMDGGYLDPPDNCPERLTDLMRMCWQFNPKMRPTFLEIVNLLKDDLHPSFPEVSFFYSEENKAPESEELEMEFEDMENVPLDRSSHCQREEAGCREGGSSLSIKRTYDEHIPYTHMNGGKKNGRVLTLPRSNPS

CC1=C(C(=O)O)N2C(=O)[C@@H](NC(=O)[C@H](NC(=O)OCC3c4ccccc4-c4ccccc43)c3ccccc3)[C@H]2SC1 [Fmoc-cephalexin, N-Fmoc-cephalexin]
Antimicrobial potency (%) ([1]; after 1 day at pH 7.4, 37° C.): 10%
Antimicrobial potency (%) ([1]; after 3 days at pH 7.4, 37° C.): 59%
Antimicrobial potency (%) ([1]; after 6 days at pH 7.4, 37° C.): 100%
Antimicrobial potency (%) ([1]; after 6 days at pH 7.4, 37° C., listed as N-Fmoc-cephalexin): about 50%
Antimicrobial potency (%) ([1]; no incubation): ~6%
Stability upon incubation ([1]; pH 7.4, 37° C.): significantly more stable
IC50 ([1]; after 1 day at pH 7.4, 37° C.): 15 µM
IC50 ([1]; after 3 days at pH 7.4, 37° C.): 9 µM
IC50 ([1]; after 6 days at pH 7.4, 37° C.): 4.5 µM
IC50 ([1]; no incubation): 23 µM
Stability to hydrolysis by penicillinase [2]: more stable to hydrolysis by penicillinase than the parent compound

CC(C)C[C@H](NC(=O)OCC1c2ccccc2-c2ccccc21)C(=O)O [Fmoc-leucine]
Index of toxicity [3]: low index of toxicity

Gly^A1, Phe^B1, Lys^B29-N-(Fmoc)3-insulin
Solubility in aqueous buffer (pH 7.4, mg/ml): ˜0.2 mg/ml
Resistance to proteolysis [4]: highly resistant to proteolysis
Appearance in aqueous buffer (pH 7.4) [5]: very cloudy
Biological potency (%) ([6]; listed as N-(Fmoc)3-insulin Gly^A1, Lys^B29, Phe^B1): <1%
Biological potency (%) ([6]; listed as tri-N-Fmoc-insulin): < 1%
Lag period of activation [7]: six day lag period
Delayed onset of antidiabetic action ([8]; STZ rats): approximately two days
Duration of antidiabetic action ([8]; STZ rats): four days
Daily weight gain ([8]; STZ rats): 1.43±0.14 g/rat/day
Circulating glucose level lower than in native insulin group ([8]; day two up to day six): 90 to 110 mg/dL

Native insulin: Human insulin, native hormone; parent drug and reference
Appearance in aqueous buffer (pH 7.4) [5]: clear
Solubility in aqueous buffer (pH 7.4, mg/ml) [5]: ˜4 or higher mg/ml
Biological potency following incubation (2 days, 37° C., pH 8.5) ([6]; after 2 days, 37° C., pH 8.5): 100
Biological potency (%) [6]: 100%
Concentration for half maximal effect ([6]; receptor tyrosine kinase assay): 20 ± 3 ng/mL
Proteolysis t½ [9]: 30 min
Period of hypoglycemia / reduced blood glucose [10]: about 12 hours
Recovery from hypoglycemia, t½ [10]: 480 min
Half-life in plasma [11]: 5 to 6 min
Daily weight gain ([8]; STZ rats): 0.57±0.08 g/rat/day
